Assay results from patent publication US11564911B2, “Small molecule dual-inhibitors of TRPV4 and TRPA1 for sanitizing and anesthetizing” (Duke University, priority 2016, dated 2023).
Where “and” joins values, the source holds several entries; their conditions need not be identical. Equal entries are not always repeated.

Legend:
TRPV4 (rat) = target: T1, TRPV4 (rat) (Rattus norvegicus, UniProt Q9ERZ8); experiment: Ca++ imaging in N2a cells with directed expression of TRPV4, activation with GSK101; type: cell-based; settings: for IC50: N2a cells, rat TRPV4, 5 nM GSK101, averaged peak ΔCa++, read-out: IC50, inhibition of TRPV4-mediated Ca++ influx; for inhibition of TRPV4-mediated Ca++ influx, first round screening: inhibitor 5 μM, 5 nM GSK101
T1 construct: expressed in transfected cells; host or cells: N2a (mouse neuroblastoma) cells
From the text: FIGS. 26A-26B: Assessment of compounds in N2a cells with directed expression of TRPV4. […] The number on each bar corresponds to average peak ΔCa++ concentrations in ≈100 cells. […] Plot generated from averaged peak ΔCa++ concentration of 75 cells per data-point.

TRPA1 (mouse) = target: T2, TRPA1 (mouse) (Mus musculus, UniProt Q8BLA8); experiment: Ca++ imaging in N2a cells with directed expression of TRPA1, mustard oil activation; type: cell-based; settings: mouse TRPA1, 100 μM mustard oil, read-out: IC50, inhibition of TRPA1
T2 construct: expressed in transfected cells; host or cells: N2a cells, eGFP co-transfected
From the text: Mean±SEM is shown, ≥100 cells per condition. […] Plot generated from averaged peak ΔCa++ concentration of […] per data-point.

human TRPA1 = target: T3, human TRPA1 (Homo sapiens, UniProt O75762); experiment: Ca2+ transient in N2a cells transfected with human TRPA1, AITC activation; type: cell-based; settings: GSK205: doses below or equaling 25 μM
T3 construct: expressed in transfected cells; host or cells: N2a cells, co-transfected with eGFP plasmid
Method: Compounds were tested for their effect on TRPA1. N2a permanent cells were transfected with human TRPA1 cDNA, using a pcDNA3.1 expression plasmid. They were co-transfected with eGFP-expressing plasmid, or, for control, with eGFP plasmid only.
Cells were then pre-exposed to 5 μM of compounds 16-8 and 16-19 for 10 min.

[1] = tested on: WT mice, whisker-pad injection of 4% formalin; experiment: Formalin-evoked trigeminal irritant pain, systemic (i.p.) compound, WT mice; type: in vivo, mouse; settings: 10 mg/kg i.p.
Method: FIGS. 31A-31D: 16-8 and 16-19 effectively attenuate formalin-evoked trigeminal irritant pain. (FIG. 31A) Time-course of nocifensive behavior in WT mice following whisker-pad injection of 4% formalin. The mice were pre-injected (i.p., 10 mg/kg; 15 min before formalin) with GSK205, 16-8 or 16-19. Note effective reduction of nocifensive behavior in the late “neural” phase by compounds 16-8, 16-19, not by GSK205. (FIG. 31B) Cumulative response binned into 3 phases: acute phase (0-5 min), interphase (5-15 min), and late “neural” phase (15-45 min). […] (FIG. 31C) As in (FIG. 31A), but also including Trpv4^−/− mice. Compounds were applied i.p. 15 min before formalin challenge, at 10 mg/kg except established TRPA1 blocker, A967079 (25 mg/kg). […]
Compounds were tested for their effect in reducing pain using an in vivo pain model in mice. […] After injection, mice were immediately placed back into the chamber and the rubbing behavior was recorded by a private consumer-type video-camera for a 45 min observation period. The recording time was divided into 9 blocks of 5 min, and a nociceptive score was determined per block by measuring the time that the animals spent rubbing the injected area predominantly with the ipsilateral fore-paw and rarely with hind-paw. […]

[2] = tested on: BL6 mice, whisker-pad injection of formalin; experiment: Formalin-evoked nocifensive behavior, compound pre-injected into the whiskerpad; type: in vivo, mouse; settings: 0.5 mM/10 μL pre-injected into whiskerpad 15 min before formalin
Method: Compounds were tested for their effect in reducing pain using an in vivo pain model in mice. For mouse formalin-evoked irritant behavior measurements, mice were well-fed, well-rested, and tested at the same time of day, at the same time-point of their circadian rhythm. They were allowed to acclimate to a plexiglas chamber for at least 30 min before testing, and received 10 μL subcutaneous injection of 4% of formalin (diluted from an aqueous solution of commercial 37% formaldehyde with normal saline (NS)) through a 30-gauge needle into the right whiskerpad, as further detailed in Luccarini et al. (J. Pain, 2006, 7, 908-914). Normal saline was used as control injection. After injection, mice were immediately placed back into the chamber and the rubbing behavior was recorded by a private consumer-type video-camera for a 45 min observation period. The recording time was divided into 9 blocks of 5 min, and a nociceptive score was determined per block by measuring the time that the animals spent rubbing the injected area predominantly with the ipsilateral fore-paw and rarely with hind-paw. This rubbing behavior with fore-paw is evoked by pain, which is distinct from itch behavior. Behavioral analysis was conducted by observers blinded to treatment.
To investigate the effects of the specific compounds GSK205, 16-8, and 16-19 on formalin-induced nociceptive behavior, mice received a single subcutaneous injection of the compounds into the whiskerpad (10 μL, dissolved in 4% DMSO) 15 min before formalin injection. Control animals received the same volume of NS, 4% DMSO.

TRPV4 = TRPV4 (Homo sapiens, UniProt Q9HBA0); experiment: TRPV4-mediated calcium influx in N2a cells with targeted expression of human TRPV4; type: cell-based; parameters: expressed in transfected cells; host or cells: N2a cells; settings: 2.5 μM inhibitor, pre-incubation 10 min, 10 nM GSK101
[3] = tested on: mice, UVB-exposed hind paws; experiment: UVB-overexposure evoked nocifensive behavior, topical compound; type: in vivo, mouse; settings: 0.5 mM in 40 μL
Method: Compounds were tested for their effect on nocifensive behavior (response to pain) following UVB overexposure. Behavioral tests were performed to evaluate the decrease in withdrawal thresholds in response to mechanical von Frey hair or thermal stimuli applied to hind paws. The Von-Frey apparatus (Ugo Basile) applied a mechanical stimulus with a flexible steel wire from underneath the hind paw. The force leading to withdrawal was determined. For the thermal stimuli test, paws were stimulated with heat from underneath applied by an infrared beam (Hargreave's test apparatus; Ugo Basile), and withdrawal latencies were recorded. The withdrawal thresholds were ascertained before and after UV exposure. Mice were exposed to UVB 3-5 days after the last application of tam/oil, using a Bio-Rad Gel Doc 2000 UV transilluminator (302 nm) for 5 min with an exposure of 600 mJ/cm^2. This represents 5-10 times the minimal erythema-inducing dose, in keeping with the rationale of inducing sunburn and studying sunburn-evoked pain.

T3 sequence (O75762 whole entry): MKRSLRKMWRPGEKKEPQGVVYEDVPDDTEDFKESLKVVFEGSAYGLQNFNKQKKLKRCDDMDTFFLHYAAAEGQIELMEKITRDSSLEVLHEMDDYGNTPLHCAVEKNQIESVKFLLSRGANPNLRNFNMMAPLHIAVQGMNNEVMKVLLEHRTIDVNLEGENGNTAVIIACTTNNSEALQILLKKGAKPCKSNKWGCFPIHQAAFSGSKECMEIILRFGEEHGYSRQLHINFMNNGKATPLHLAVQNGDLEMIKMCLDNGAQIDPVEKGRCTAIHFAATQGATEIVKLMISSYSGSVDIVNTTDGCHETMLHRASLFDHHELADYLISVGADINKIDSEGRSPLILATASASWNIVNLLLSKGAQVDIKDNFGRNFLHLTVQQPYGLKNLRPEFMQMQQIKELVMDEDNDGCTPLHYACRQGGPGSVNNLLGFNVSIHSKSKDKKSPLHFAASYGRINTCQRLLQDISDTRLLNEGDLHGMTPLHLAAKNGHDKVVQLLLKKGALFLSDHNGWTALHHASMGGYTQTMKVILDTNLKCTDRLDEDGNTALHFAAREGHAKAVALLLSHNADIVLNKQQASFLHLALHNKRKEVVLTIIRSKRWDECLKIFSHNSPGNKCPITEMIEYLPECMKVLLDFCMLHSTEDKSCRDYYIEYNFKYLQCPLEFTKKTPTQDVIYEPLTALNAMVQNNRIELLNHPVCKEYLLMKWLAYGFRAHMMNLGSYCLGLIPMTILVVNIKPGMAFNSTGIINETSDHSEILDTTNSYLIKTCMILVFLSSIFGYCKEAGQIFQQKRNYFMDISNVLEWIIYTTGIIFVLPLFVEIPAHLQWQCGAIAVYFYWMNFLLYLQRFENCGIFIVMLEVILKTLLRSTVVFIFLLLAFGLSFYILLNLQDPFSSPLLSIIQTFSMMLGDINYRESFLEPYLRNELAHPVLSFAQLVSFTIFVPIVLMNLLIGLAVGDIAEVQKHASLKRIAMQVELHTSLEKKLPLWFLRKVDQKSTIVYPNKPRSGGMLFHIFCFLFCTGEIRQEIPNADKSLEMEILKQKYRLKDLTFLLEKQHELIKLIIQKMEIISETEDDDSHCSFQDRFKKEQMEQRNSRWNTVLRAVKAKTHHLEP
T1 sequence (Q9ERZ8 whole entry): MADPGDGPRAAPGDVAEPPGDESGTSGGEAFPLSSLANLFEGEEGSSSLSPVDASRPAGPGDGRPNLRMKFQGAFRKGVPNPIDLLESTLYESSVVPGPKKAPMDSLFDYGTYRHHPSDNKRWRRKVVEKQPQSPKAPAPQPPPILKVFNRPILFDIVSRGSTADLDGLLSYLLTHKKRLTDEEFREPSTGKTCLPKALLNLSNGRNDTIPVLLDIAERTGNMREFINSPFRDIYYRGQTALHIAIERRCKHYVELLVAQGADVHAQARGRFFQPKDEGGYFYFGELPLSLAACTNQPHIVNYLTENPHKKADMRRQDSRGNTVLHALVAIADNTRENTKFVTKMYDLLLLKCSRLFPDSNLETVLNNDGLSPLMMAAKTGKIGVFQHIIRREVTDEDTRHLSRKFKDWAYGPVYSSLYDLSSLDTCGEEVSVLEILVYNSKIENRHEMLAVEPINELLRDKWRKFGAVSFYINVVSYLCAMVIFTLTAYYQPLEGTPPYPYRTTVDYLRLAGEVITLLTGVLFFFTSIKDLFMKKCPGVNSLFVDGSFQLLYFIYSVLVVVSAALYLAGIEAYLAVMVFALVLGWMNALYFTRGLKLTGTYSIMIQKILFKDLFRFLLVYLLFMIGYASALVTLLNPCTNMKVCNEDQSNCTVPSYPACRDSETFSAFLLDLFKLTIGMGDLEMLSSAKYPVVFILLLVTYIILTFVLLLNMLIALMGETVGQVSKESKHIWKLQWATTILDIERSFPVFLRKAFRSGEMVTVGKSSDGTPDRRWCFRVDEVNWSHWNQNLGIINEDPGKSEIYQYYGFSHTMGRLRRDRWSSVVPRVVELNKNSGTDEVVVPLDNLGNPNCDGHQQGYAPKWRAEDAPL
T2 sequence (Q8BLA8 whole entry): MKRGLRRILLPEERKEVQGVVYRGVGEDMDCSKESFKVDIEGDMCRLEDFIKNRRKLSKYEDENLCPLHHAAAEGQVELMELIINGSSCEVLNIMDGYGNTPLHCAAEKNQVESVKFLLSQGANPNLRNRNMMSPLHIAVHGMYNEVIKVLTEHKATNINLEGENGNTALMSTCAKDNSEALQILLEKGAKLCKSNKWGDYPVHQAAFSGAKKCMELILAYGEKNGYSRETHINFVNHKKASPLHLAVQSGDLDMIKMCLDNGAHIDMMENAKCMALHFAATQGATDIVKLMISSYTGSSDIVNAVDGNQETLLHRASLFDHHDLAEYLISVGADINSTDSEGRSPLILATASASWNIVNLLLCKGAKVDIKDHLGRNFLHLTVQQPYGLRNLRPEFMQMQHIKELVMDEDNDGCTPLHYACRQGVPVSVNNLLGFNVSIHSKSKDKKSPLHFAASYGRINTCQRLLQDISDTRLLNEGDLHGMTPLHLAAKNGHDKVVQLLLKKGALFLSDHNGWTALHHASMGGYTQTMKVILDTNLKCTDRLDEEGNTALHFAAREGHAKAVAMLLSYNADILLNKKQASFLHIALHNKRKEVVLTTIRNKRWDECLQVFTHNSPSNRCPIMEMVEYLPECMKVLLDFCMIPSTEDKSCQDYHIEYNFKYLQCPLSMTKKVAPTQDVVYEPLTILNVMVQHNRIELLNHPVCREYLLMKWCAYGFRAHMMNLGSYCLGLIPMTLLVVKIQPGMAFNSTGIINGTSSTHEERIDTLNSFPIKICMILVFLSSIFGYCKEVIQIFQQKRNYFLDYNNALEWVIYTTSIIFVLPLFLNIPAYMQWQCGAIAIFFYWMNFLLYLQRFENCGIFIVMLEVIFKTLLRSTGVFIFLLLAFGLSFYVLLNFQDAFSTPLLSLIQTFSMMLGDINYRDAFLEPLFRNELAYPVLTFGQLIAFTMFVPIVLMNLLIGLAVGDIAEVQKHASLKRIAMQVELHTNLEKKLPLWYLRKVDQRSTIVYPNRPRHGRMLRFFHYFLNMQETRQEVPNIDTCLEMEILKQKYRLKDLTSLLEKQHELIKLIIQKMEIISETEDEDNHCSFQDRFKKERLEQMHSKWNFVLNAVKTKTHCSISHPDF
TRPV4, sequence (Q9HBA0 whole entry): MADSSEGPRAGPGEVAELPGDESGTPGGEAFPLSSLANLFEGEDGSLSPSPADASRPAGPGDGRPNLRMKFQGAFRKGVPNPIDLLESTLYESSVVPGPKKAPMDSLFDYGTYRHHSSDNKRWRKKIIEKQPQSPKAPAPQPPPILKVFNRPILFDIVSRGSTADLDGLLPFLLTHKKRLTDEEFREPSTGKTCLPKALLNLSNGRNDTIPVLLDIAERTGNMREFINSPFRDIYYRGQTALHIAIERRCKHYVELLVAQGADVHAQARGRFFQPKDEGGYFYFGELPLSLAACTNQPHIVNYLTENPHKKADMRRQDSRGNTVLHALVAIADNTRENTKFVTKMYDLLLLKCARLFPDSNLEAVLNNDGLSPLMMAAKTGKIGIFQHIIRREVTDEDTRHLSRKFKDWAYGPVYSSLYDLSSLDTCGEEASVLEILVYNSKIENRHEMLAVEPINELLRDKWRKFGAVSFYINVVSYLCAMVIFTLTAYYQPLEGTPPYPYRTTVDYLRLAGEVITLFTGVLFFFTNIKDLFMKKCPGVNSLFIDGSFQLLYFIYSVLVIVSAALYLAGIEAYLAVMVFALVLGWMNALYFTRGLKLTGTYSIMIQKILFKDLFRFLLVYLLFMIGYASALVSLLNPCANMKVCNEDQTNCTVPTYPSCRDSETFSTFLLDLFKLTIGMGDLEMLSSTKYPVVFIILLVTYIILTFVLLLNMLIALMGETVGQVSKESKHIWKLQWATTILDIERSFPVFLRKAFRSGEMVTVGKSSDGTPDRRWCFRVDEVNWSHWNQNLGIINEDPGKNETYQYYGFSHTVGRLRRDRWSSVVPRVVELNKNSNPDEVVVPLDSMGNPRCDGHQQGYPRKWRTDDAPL

Row | Structure (SMILES) | IC50 (TRPV4 (rat)) | increased potency versus parental compound GSK205 (TRPV4 (rat); from IC50 values, rat TRPV4 in N2a cells) [fold] | inhibition of TRPV4-mediated Ca++ influx, first round screening (TRPV4 (rat)) | IC50 (TRPA1 (mouse)) | inhibitory activity against human TRPA1 (human TRPA1) | formalin-evoked pain behavior in the delayed (late, neural) phase [1] | nocifensive behavior, in particular second phase [2] | inhibition of TRPV4-mediated calcium influx (peak calcium concentration) (TRPV4) | response to pain following UVB exposure [3]
1 | CCN(CCc1ccc(Nc2nc(-c3ccccc3)cs2)cc1)Cc1ccccc1 [Compound 16-19] | 590 nM and 810 nM | ~8 | virtually eliminated Ca++ influx | 430 nM and 410 nM | showed inhibitory activity | robust effect | significant attenuation | did not show enhanced inhibition over 16-8 | 
2 | CN(CCc1ccc(Nc2nc(-c3ccccc3)cs2)cc1)Cc1ccccc1 [Compound 16-8] | 450 nM |  | virtually eliminated Ca++ influx | 410 nM and 430 nM | showed inhibitory activity | significant attenuation | significant attenuation | most potent | especially effective
3 | CN(CCc1ccc(Nc2nc(-c3cccnc3)cs2)cc1)Cc1ccccc1 [GSK205] | 4190 nM |  |  | 5560 ± 400 nM | did not inhibit TRPA1 activity |  | lack of effect | very low potency | as effective as vehicle
